Measured values as given in the supplement of paper PMC10307832.

Experiments:
Assay in all cases: relative viability (nuclei count vs DMSO), 5 days (fraction); higher = more cells survive
[1] = compound: COc1cccc2cc(-c3nc([C@H]4CC[C@H](C(=O)O)CC4)n4ncnc(N)c34)[nH]c12 [OSI-027] + CC(=O)Nc1cccc(-n2c(=O)n(C3CC3)c(=O)c3c(Nc4ccc(I)cc4F)n(C)c(=O)c(C)c32)c1 [Trametinib] (partner 0.02 µM)
Procedure, shortened: (§1)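 Lung cancer cell lines in 1536-well plates got either a single drug or a fixed anchor-drug dose together with five library-drug doses (not always all listed) in √10 steps, by pin tool, on the day after seeding. Nuclei were counted after 5 days, and relative viability is the treated-to-vehicle ratio of nuclei counts. Values are medians of duplicate plates.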

[2] = compound: COc1cccc2cc(-c3nc([C@H]4CC[C@H](C(=O)O)CC4)n4ncnc(N)c34)[nH]c12 [OSI-027] + Cc1nc(NC(=O)N2CCC[C@H]2C(N)=O)sc1-c1ccnc(C(C)(C)C(F)(F)F)c1 [Alpelisib] (partner 2 µM)
Procedure, shortened: as §1

[3] = compound: Cc1nc(NC(=O)N2CCC[C@H]2C(N)=O)sc1-c1ccnc(C(C)(C)C(F)(F)F)c1 [Alpelisib] + CC(=O)Nc1cccc(-n2c(=O)n(C3CC3)c(=O)c3c(Nc4ccc(I)cc4F)n(C)c(=O)c(C)c32)c1 [Trametinib] (partner 0.02 µM)
Procedure, shortened: as §1

[4] = compound: Cc1nc(NC(=O)N2CCC[C@H]2C(N)=O)sc1-c1ccnc(C(C)(C)C(F)(F)F)c1 [Alpelisib] + CC(=O)c1c(C)c2cnc(Nc3ccc(N4CCNCC4)cn3)nc2n(C2CCCC2)c1=O [Palbociclib] (partner 0.5 µM)
Procedure, shortened: as §1

Row | Cell Line | relative viability ([1]; first compound 0.01 µM) | relative viability ([1]; first compound 0.03162 µM) | relative viability ([1]; first compound 0.1 µM) | relative viability ([1]; first compound 0.3162 µM) | relative viability ([1]; first compound 1 µM) | relative viability ([2]; first compound 0.01 µM) | relative viability ([2]; first compound 0.03162 µM) | relative viability ([2]; first compound 0.1 µM) | relative viability ([2]; first compound 0.3162 µM) | relative viability ([2]; first compound 1 µM) | relative viability ([3]; first compound 0.04 µM) | relative viability ([3]; first compound 0.1265 µM) | relative viability ([3]; first compound 0.4 µM) | relative viability ([3]; first compound 1.265 µM) | relative viability ([3]; first compound 4 µM) | relative viability ([4]; first compound 0.04 µM) | relative viability ([4]; first compound 0.1265 µM) | relative viability ([4]; first compound 0.4 µM) | relative viability ([4]; first compound 1.265 µM) | relative viability ([4]; first compound 4 µM)
1 | NCI-H23 | 0.313 | 0.42 | 0.349 | 0.26 | 0.28 | 0.594 | 0.54 | 0.632 | 0.481 | 0.295 | 0.287 | 0.354 | 0.252 | 0.286 | 0.233 | 0.59 | 0.434 | 0.461 | 0.305 | 0.313
2 | NCI-H322M | 0.509 | 0.543 | 0.496 | 0.482 | 0.455 | 0.0629 | 0.772 | 0.775 | 0.539 | 0.521 | 0.516 | 0.497 | 0.49 | 0.367 | 0.411 | 0.47 | 0.493 | 0.453 | 0.389 | 0.309
3 | NCI-H358 | 0.114 | 0.129 | 0.123 | 0.112 | 0.117 | 0.98 | 0.774 | 0.757 | 0.478 | 0.297 | 0.138 | 0.118 | 0.128 | 0.11 | 0.1 | 0.118 | 0.104 | 0.139 | 0.103 | 0.103
4 | NCI-H441 | 0.346 | 0.434 | 0.486 | 0.362 | 0.253 | 0.716 | 0.718 | 0.686 | 0.636 | 0.273 | 0.472 | 0.383 | 0.388 | 0.247 | 0.263 | 0.225 | 0.166 | 0.182 | 0.14 | 0.111
5 | NCI-H460 | 0.152 | 0.13 | 0.145 | 0.129 | 0.12 | 0.541 | 0.404 | 0.314 | 0.168 | 0.119 | 0.093 | 0.161 | 0.155 | 0.0725 | 0.0881 | 0.338 | 0.155 | 0.166 | 0.0802 | 0.114
6 | NCI-H520 | 0.644 | 0.606 | 0.563 | 0.379 | 0.188 | 1.11 | 0.833 | 0.701 | 0.41 | 0.205 | 0.62 | 0.574 | 0.549 | 0.491 | 0.429 | 0.241 | 0.235 | 0.195 | 0.19 | 0.189
7 | NCI-H647 | 0.367 | 0.395 | 0.438 | 0.385 | 0.236 | 1.15 | 1.26 | 0.914 | 0.699 | 0.376 | 0.44 | 0.473 | 0.523 | 0.348 | 0.481 | 0.322 | 0.447 | 0.421 | 0.289 | 0.275
8 | NCI-H650 | 0.915 | 1.11 | 0.909 | 0.851 | 0.454 | 1.05 | 1.1 | 0.749 | 0.679 | 0.389 | 0.996 | 0.921 | 0.962 | 0.749 | 0.774 | 0.315 | 0.345 | 0.316 | 0.263 | 0.265
9 | NCI-H661 | 0.545 | 0.479 | 0.468 | 0.432 | 0.307 | 0.482 | 0.671 | 0.41 | 0.5 | 0.33 | 0.618 | 0.593 | 0.645 | 0.52 | 0.462 | 0.365 | 0.367 | 0.411 | 0.412 | 0.359
10 | NCI-H727 | 0.346 | 0.412 | 0.349 | 0.387 | 0.395 | 0.567 | 0.63 | 0.491 | 0.419 | 0.378 | 0.349 | 0.387 | 0.383 | 0.301 | 0.308 | 0.569 | 0.584 | 0.702 | 0.452 | 0.523
11 | NCI-H838 | 0.455 | 0.532 | 0.436 | 0.317 | 0.206 | 0.996 | 0.847 | 0.632 | 0.498 | 0.275 | 0.419 | 0.483 | 0.515 | 0.405 | 0.421 | 0.246 | 0.222 | 0.24 | 0.18 | 0.182
12 | NCI-H1355 | 0.401 | 0.458 | 0.341 | 0.3 | 0.252 | 0.764 | 0.723 | 0.677 | 0.345 | 0.24 | 0.397 | 0.421 | 0.386 | 0.356 | 0.292 | 0.403 | 0.412 | 0.377 | 0.341 | 0.267
13 | NCI-H1395 | 1.1 | 1.02 | 0.957 | 0.863 | 0.648 | 1.04 | 1.14 | 0.974 | 0.93 | 0.757 | 1.07 | 1 | 1.13 | 0.817 | 0.878 | 0.634 | 0.651 | 0.649 | 0.475 | 0.589
14 | NCI-H1437 | 0.43 | 0.406 | 0.493 | 0.39 | 0.248 | 1 | 0.676 | 0.895 | 0.521 | 0.272 | 0.434 | 0.492 | 0.539 | 0.382 | 0.304 | 0.327 | 0.314 | 0.356 | 0.264 | 0.314
15 | NCI-H1651 | 0.829 | 0.736 | 0.838 | 0.805 | 0.607 | 1.1 |  | 0.882 | 0.713 | 0.559 | 0.752 | 0.828 | 0.807 | 0.759 | 0.561 | 0.512 | 0.514 | 0.594 | 0.483 | 0.484
